By IC50 is commonly meant the concentration that inhibits the measured activity by half.

SMILES strings stand for the structures.

The text below walks through data of patent US20080312206A1, “Chemical Compounds-149” (AstraZeneca AB, priority 2005, published 2008).

The experiment deals with T1, CSF-1R (Homo sapiens, UniProt P07333).
T1 construct: amino acids 568-912, GeneBank ID NM_005211; His; made in house; host or cells: baculovirus infected SF+Express insect cells
T1 sequence (P07333 568-912): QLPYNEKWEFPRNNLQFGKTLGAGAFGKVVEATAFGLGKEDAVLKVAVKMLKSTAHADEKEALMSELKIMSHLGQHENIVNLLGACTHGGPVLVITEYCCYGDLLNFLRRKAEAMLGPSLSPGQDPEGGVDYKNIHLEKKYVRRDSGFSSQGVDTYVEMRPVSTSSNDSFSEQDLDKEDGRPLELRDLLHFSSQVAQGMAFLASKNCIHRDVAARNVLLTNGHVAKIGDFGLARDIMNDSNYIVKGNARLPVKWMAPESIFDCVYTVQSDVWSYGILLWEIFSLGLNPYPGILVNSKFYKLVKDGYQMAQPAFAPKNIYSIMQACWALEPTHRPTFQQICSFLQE
As to the kind of experiment: CSF-1R In Vitro AlphaScreen Assay. The format is biochemical. Particulars: purified His-tagged kinase domain of CSF-1R, pEY substrate, 90 μM ATP. The protocol:
CSF-1R In Vitro AlphaScreen Assay
Activity of purified CSF-1R was determined in vitro using an Amplified Luminescent Proximity Homogeneous Assay (ALPHA)(Perkin Elmer), which measures phosphorylation of the CSF-1R substrate, biotinylated poly-glutamine-tyrosine peptide (pEY-HTRF CisBio 61GT0BLD), as described below. The His-tagged kinase domain of CSF-1R (i.e., amino acids 568-912, GeneBank ID NM_005211; (see page 25 lines 13-19 of WO 2006/067445 for the sequence listing)) was purified from baculovirus infected SF+Express insect cells (1.4×10^6 cells/ml), French pressed and chromatographed through subsequent Qiagen Ni-NTA, Superflow Mono Q HR 10/10, and Superdex 200 SEC columns. Typical yield was 322 ug/l of cell pellet at >95% purity.
The phosphorylation of the CSF-1R substrate in the presence and absence of the compound of interest was determined. Briefly, 0.2 pM of purified CSF-1R, 5 nM pEY substrate, and compound were preincubated in 1× buffer for 30 minutes at 25° C. Reactions were initiated with addition of 90 μM adenosine triphosphate (ATP) in 1× buffer and incubated at 25° C. for 40 minutes and reactions stopped by addition of 5 μl of detection mix consisting of 136 mM NaCl, 102 mM ethylenediamine tetraacetic acid, 1.65 mg/ml BSA, 40 ug/ml Streptavidin donor beads (Perkin Elmer 6760620M), 40 ug/ml pEY100 acceptor beads (Perkin Elmer 6760620M). Plates were incubated at 25° C. for 18 hours in the dark. Phosphorylated substrate was detected by an EnVision plate reader (Perkin Elmer) 680 nm excitation, 520-620 nm emission. Data was graphed and IC50s calculated using Excel Fit (Microsoft).
(Bead proximity is the source of the signal in Alpha formats.)

In turn, `CON(C)C(=O)c1ncc(NC(=O)c2cc(NC(=O)c3cccc(C(C)(C)C#N)c3)ccc2C)s1` [Example 15, 5-[(5-{[3-(1-Cyano-1-methylethyl)benzoyl]amino}-2-methylbenzoyl)amino]-N-methoxy-N-methyl-1,3-thiazole-2-carboxamide] came in with an IC50 of 7 nM.

In the case of `Cc1cc(C)cc(C(=O)Nc2ccc(Cl)c(C(=O)Nc3cnc(C(C)C)s3)c2)c1` [Example 20, 2-Chloro-5-[(3,5-dimethylbenzoyl)amino]-N-(2-isopropyl-1,3-thiazol-5-yl)benzamide], the IC50 stood at 10 nM.

The molecule `CC(C)c1ncc(NC(=O)c2cc(NC(=O)c3cc(F)cc(C(F)(F)F)c3)ccc2Cl)s1` [Example 21, 2-Chloro-5-{[3-fluoro-5-(trifluoromethyl)benzoyl]amino}-N-(2-isopropyl-1,3-thiazol-5-yl)benzamide] displayed an IC50 of 13 nM.
